Assay results: patent publication US20160002240A1, “NUCLEOSIDE ANALOG SALTS WITH IMPROVED SOLUBILITY AND METHODS OF FORMING SAME” (THE BOARD OF TRUSTEES OF THE UNIVERSITY OF ALABAMA, priority 2013, published 2016)
Values joined by “and” are separate entries in the source; they are usually repeats but may differ in a detail not shown here. Equal entries are not always repeated. Where two headings read alike, the source gives them in different places. Marks after values point to notes of the source that are not given here.

How the values were obtained:
[1] = Solubility in deionized water, UV absorbance at 254 nm with calibration curve
Description: The UV-VIS spectra used for development of calibration curves and for determination of the solubility values were performed on a Varian CARY 3 UV-Visible Spectrophotometer.
After filtering through Teflon syringe filters 0.2 μm), UV was used to determine the absorbance at 254 nm. A calibration curve of the compound in water was used to determine the concentration.
In a vial, 5.500 g [Cho][Acy] was mixed with 2 mL DI H2O.
(§1) A calibration curve of the compound in water was used to determine the concentration.
In a vial, 0.500 g [N1,1,1,16][Acy] was suspended in 1 mL DI H2O. The mixture was stirred for 24 h at room temperature. […] After filtering through a Teflon syringe filter (0.2 μm), 0.1 mL solution was diluted to 25 mL with DI H2O and its absorbance at 254 nm was determined.
as §1
In a vial, 4.8 g [P4,4,4,4][Acy] was suspended in 2 mL DI H2O. The mixture was stirred for 24 h at room temperature.
In a vial, 0.150 g [Acy]HCl was suspended in 1 mL DI H2O. The mixture was stirred for 24 h at room temperature. […] After filtering, 0.1 mL solution was diluted to 25 mL with DI H2O and its absorbance was determined.
In a vial, 0.2 g [Acy][Doc] was suspended in 1.5 mL DI H2O. […] To about 0.3 mL of this emulsion, water was added dropwise (mixing well each time after water was added) until a more clear mixture was obtained. […] The mixture was sonicated for about 30 min; this process (add water, sonication) was repeated until a clear solution was obtained. 0.5 mL of the clear solution obtained was diluted to 50 mL with DI H2O and UV was used to determine the absorbance at 254 nm.
as §1

[2] = Solubility in simulated biological fluids (PBS, SIF, SGF); details: for Solubility in PBS (pH = 7.4): phosphate buffer saline pH 7.4
Description: For all solvents used (water, Phosphate Buffer Solution (PBS), Simulated Gastric Fluid (SGF), Simulated Intestinal Fluid (SIF)) same amount of compound/solvent was used: 0.1 g compound/0.5 mL solvent. The solutions were stirred at room temperature for 24 h. The resulting suspensions were filtered through a 0.2 μm Teflon syringe filter to obtain clear solutions. […] Deuterated dmso (dmso-d6) containing 0.05% (v/v) TMS (as internal standard) was used to run the ^1H-NMR. 0.1 mL of the filtered solutions were combined with 0.4 mL dmso-d6 w/ 0.05% (v/v) TMS (corresponding to 1.836×10-6 mols TMS). The solubility values were determined from the molar ratio between the peaks corresponding to the compound and TMS.
Solubility experiments were conducted as described in example 12.

[3] = Thermogravimetric analysis (thermal stability); format: physicochemical; details: for T5%onset: Table 4, onset temperature of initial 5 wt % mass loss, nitrogen, 5° C./min
Description: TGA experiments were performed on a Mettler Toledo TGA/DSC1 Star unit under a stream of nitrogen. Samples (5-20 mg) were placed on a platinum pan and were heated from 25° C. to 800° C. with a constant heating rate of 5° C./min and with a 30 min isotherm at 75° C. to remove any remaining volatiles. Decomposition temperatures (T5% onset) were reported as the onset temperature with respect to the initial 5 wt % mass loss.

[4] = cited from earlier work
[5] = at 25° C.; cited from earlier work
[6] = quantitative NMR, room temperature, 24 h
[7] = simulated intestinal fluid pH 6.8 without pancreatin, quantitative NMR

| Compound | Water solubility [1] [mg/mL] | Water solubility mg/mL (g/L) [1] | Water solubility mol/L [1] | T5%onset [3] [°C] | further results |
| --- | --- | --- | --- | --- | --- |
| Nc1nc2c(ncn2COCCO)c(=O)[nH]1 [Acyclovir, reference compound] | 1.42 | 1.42 mg/mL (g/L) | 0.0063 (0) mol/L | 240 | Solubility in PBS (pH = 7.4) ([2]; determined using UV-Vis): 1.4^b mg ‘acyclovir’/mL; Solubility in PBS (pH = 7.4) [2, 6]: 1.5 mg ‘acyclovir’/mL; Solubility in SIF (pH = 6.8) [2, 7]: 2.22 mg ‘acyclovir’/mL; Oral bioavailability [4]: 10-20%; Water solubility, literature value [5]: 5.77 mM |
| Nc1nc2c(ncn2COCCO)c(=O)[nH]1 [[Cho][Acy] (1)] [choline acyclovir] | 1019.42 | 1019.42 mg/mL (g/L) | 3.1045 (81) mol/L | 128 | – |
| Cl.Nc1nc2c(ncn2COCCO)c(=O)[nH]1 [[H2Acy]Cl (6), acyclovir hydrochloride] | – | – | – | 156 | Solubility in SGF (pH = 1.2) ([2]; pH 1.2): 292.8 mg ‘acyclovir’/mL; Solubility in SIF (pH = 6.8) ([2]; pH 6.8): 167.0 mg ‘acyclovir’/mL |
| Nc1nc2c(ncn2COCCO)c(=O)[nH]1 [[H2Acy][Doc] (7)] [acyclovir docusate] | 8.48 | 8.47 mg/mL (g/L) | 0.0131 (0) mol/L | 122 | Solubility in deionized water, average [1]: 8.46 mg/mL; Solubility in deionized water, single determination ([1]; room temperature, stirred 24 h (acyclovir overnight), individual replicate (1st, 2nd, 3rd)): 13.06 mM and 13.05 mM; Solubility in deionized water, average ([1]; room temperature, average of replicates, text of Examples): 13.06 mM |
| Nc1nc2c(ncn2COCCO)c(=O)[nH]1 [[N1,1,1,16][Acy] (3)] [trimethylhexadecylammonium acyclovir] | 252.18 | 252.18 mg/mL (g/L) | 0.4957 (4) mol/L | 150 | – |
| Nc1nc2c(ncn2COCCO)c(=O)[nH]1 [[N4,4,4,1][Acy] (2)] [tributylmethylammonium acyclovir] | – | – | – | 115 | – |
| Nc1nc2c(ncn2COCCO)c(=O)[nH]1 [[N4,4,4,4][Acy] (5)] [tetrabutylammonium acyclovir] | – | – | – | 132 | Solubility in PBS (pH = 7.4) [2, 6]: 1.0 mg ‘acyclovir’/mL; Solubility in SIF (pH = 6.8) [2, 7]: 144.0 mg ‘acyclovir’/mL |
| Nc1nc2c(ncn2COCCO)c(=O)[nH]1 [[P4,4,4,4][Acy] (4)] [tetrabutylphosphonium acyclovir] | 803.89 | 803.89 mg/mL (g/L) | 1.6622 (41) mol/L | 221 | T5% onset (onset for 5% decomposition from TGA) [3]: 221 °C |
| CC(C)[C@H](N)C(=O)OCCOCn1cnc2c(=O)[nH]c(N)nc21 [valacyclovir] | – | – | – | – | Oral bioavailability [4]: about 55% |
| acyclovir docusate [[H2Acy][Doc] (7)] | – | – | – | – | Stability of emulsion in water [1]: at least 48 h |
